Source: patent US4681966A, “Intermediate for thiol based collagenase inhibitors” (G. D. Searle & Co., priority 1986, dated 1987)

Target: T1, Human Rheumatoid Synovial collagenase (Homo sapiens, UniProt P03956)
T1 construct: Synovial collagenase; from tissue; host or cells: human rheumatoid synovium (from the enzyme's printed name)
T1 sequence (P03956 100-469): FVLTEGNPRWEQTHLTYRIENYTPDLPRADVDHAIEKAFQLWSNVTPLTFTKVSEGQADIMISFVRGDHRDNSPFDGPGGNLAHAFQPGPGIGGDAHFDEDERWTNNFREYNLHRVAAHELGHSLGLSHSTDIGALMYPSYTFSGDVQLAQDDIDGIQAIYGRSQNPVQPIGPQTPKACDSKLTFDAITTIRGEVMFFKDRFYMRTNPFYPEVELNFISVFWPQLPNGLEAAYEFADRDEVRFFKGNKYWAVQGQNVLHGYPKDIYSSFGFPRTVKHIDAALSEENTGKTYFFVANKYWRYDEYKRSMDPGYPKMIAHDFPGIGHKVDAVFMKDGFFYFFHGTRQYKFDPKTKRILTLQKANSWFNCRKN
Test: Inhibition of collagenase: acetyl 14C collagen degradation (Cawston and Barrett), concentration effecting 50% inhibition
Format: biochemical
Conditions: Table 3; comparison R1 = H vs CH3; 37° C., 16 hours, pH 7.6; read-out: IC50 against human rheumatoid sinovial [collagenase]
Method: This was determined following the procedure of Cawston and Barrett, Anal. Biochem,. 99, 340-345 (1979) whereby the 1 mM of the inhibitor being tested or dilutions thereof are incubated at 37° C. for 16 hours with native collagen and collagenase (buffered with Tris HCl--CaCl2; pH 7.6). The collagen is acetyl ^14 C collagen. The samples are centrifuged to sediment undigested collagen and an aliquot of the radiactive supernatant removed for assay on a scintillation counter as a measure of hydrolysis. The collagenase activity in the presence of 1 mM inhibitor, or a dilution thereof, is compared to activity in a control devoid of inhibitor and the results reported as that inhibitor concentration effecting 50% inhibition of the collagenase.
This was determined following the procedure of Cawston and Barrett, Anal. Biochem., 99, 340-345 (1979) whereby the 1 mM of the inhibitor being tested or dilutions thereof are incubated at 37° C. for 16 hours with native collagen and collagenase (buffered with Tris HCl--CaCl2; pH 7.6). The collagen is acetyl […] collagen. The samples are centrifuged to sediment undigested collagen and an aliquot of the radioactive supernatant removed for assay on a scintillation counter as a measure of hydrolysis. […]

- IC50: 450 nM
Structure (SMILES): CNC(=O)[C@@H](NC(=O)C(CC(C)C)C(C)S)[C@@H](C)OCc1ccccc1 (stereo partly drawn) [Example 6 A, N-[2-(1-Mercaptoethyl)-4-methylpentanoyl]-O-benzyl-L-threonine N-Methylamide]
